Laboratory results from US20260334439A1, “BCAT2 INHIBITORS” (Agios Pharmaceuticals, Inc., priority 2023, published 2026).

Tests used:
[1] = target: T1, BCAT2 (Homo sapiens, UniProt O15382); assay: BCAT2 in vitro enzyme inhibition assay (hBCAT2, glutamate dehydrogenase/diaphorase/resazurin coupled fluorescence read); type: biochemical; settings: hBCAT2, 1 h preincubation at 25° C., one hour reaction; average where tested multiple times
T1 sequence (O15382 28-392): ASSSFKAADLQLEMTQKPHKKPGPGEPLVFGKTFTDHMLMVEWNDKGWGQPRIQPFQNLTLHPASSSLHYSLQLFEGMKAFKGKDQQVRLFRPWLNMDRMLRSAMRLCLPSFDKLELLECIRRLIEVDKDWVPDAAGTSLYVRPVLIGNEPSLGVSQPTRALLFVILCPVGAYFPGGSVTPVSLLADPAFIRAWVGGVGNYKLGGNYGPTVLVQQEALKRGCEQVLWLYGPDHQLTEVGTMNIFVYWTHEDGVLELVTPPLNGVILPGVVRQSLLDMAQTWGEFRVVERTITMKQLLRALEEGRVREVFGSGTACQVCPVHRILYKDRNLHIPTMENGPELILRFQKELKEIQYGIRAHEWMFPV
Summary of the method: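 Coupled GDH/diaphorase/resazurin fluorescence (Ex 540/Em 590) read after 1 h reaction at 25 °C, SDS-stopped; enzyme (0.33 μg/mL in mix) first preincubated 1 h with compound, 10-point 3-fold series from 100 μM final, Tris pH 8.0 buffer with NaCl, BSA; technical duplicates, averaged across tests.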

[2] = target: T1, BCAT2; assay: BCAT2 cell inhibition using engineered A549 cells (MUT KO, BCAT1 KO; 13C6-KMV formation by LC-MS/MS); type: cell-based; design: expressed endogenous BCAT2; endogenous in cells; host or cells: A549 cells, MUT knockout and BCAT1 knockout
Source text: Endogenous Methylmalonyl-CoA Mutase (MUT) and Branched Chain Aminotransferase 1 (BCAT1) in A549 cells was knocked out by CRISPR/CAS9 using the targeting system from TransOMIC Technologies. The following guide sequence was cloned into pCLIP-ALL-EFS-Blast vector to target human MUT: […] (SEQ ID NO: 35). The following guide sequence was cloned into pCLIP-ALL-EFS-Puro vector to target human BCAT1: […] (SEQ ID NO: 36). The resulting plasmids were co-transfected into 293T cells with VSV-G, P-PEX, and Fugene-6. Lentivirus was harvested and A549 cells were first transduced with lentivirus targeting MUT and polybrene. After genetic selection with blasticidin clonal selection was performed and validated via western blot analysis to confirm MUT was no longer expressed. These MUT KO cells were then transduced with lentivirus targeting BCAT1 and polybrene. After selection with puromycin clonal selection was performed and clones were validated via western blot analysis to confirm BCAT1 was no longer expressed in these cells. The result was an engineered A549 cell line that expressed endogenous BCAT2.
For KMV cell assays, on day 1, 25,000 cells/100 μL EMEM (10% FBS) were seeded in each well of a 96-well plate. On day 2, medium was replaced with 50 μL fresh EMEM (10% dialyzed FBS) containing 2× the assay concentration of experimental compound. After 15 minutes, 50 μL of 800 uM ^15N,^13C6-Isoleucine in EMEM (10% dialyzed FBS) was added to each well and incubated for 24 hours. On day 3, 50 μL of media from each well was collected and transferred to another 96-well plate for ^13C6-3-Methyl-2-Oxopentanoic Acid (KMV) analysis via LC-MS/MS. In the remaining assay wells 50 μL of Promega Glo CTG reagent was added and luminescence was measured as a cell viability readout.
For LC-MS/MS analysis 5 μL of cell assay media from each well was transferred to a 96-well plate and 45 μL of ACN:0.1% NaOH (50:50, v/v)^+0.20 nM d8-KMV was added and mixed on a shaker. 15 μL was transferred to a new 96-well plate and 15 μL of 10 mg/mL PFBHA solution was added and mixed on the shaker. The reaction was placed on ice for 30 minutes and quenched with 10 μL of ACN: Acetone (50:50, v/v) on a shaker. The resulting mixture was diluted with 100 μL of ACN:0.1% NaOH (50:50, v/v) on a shaker. 10 μL of sample were injected on the Shimadzu 20AD LC-MS/MS to quantify ^13C6-KMV.
Where a compound was tested multiple times, the average value of the tests is reported.

[3] = read-out: BCAT2 Cell Inhibition (IC50), engineered A549 cells, 24 hours, 13C6-KMV in media, average where tested multiple times

SMILES	IC50 [1]	IC50 [2, 3]	IC50 [2]
CN1C[C@@H](NC(=O)c2cc(F)ccn2)C[C@@H](n2c(-c3ccccc3F)nc3cnc(-c4nc[nH]n4)cc32)C1 [Example 133, 4-fluoro-N-((3S,5R)-5-(2-(2-fluorophenyl)-6-(1H-1,2,4-triazol-3-yl)-1H-imidazo[4,5-c]pyridin-1-yl)-1-methylpiperidin-3-yl)picolinamide]	100 to 500 nM	> 1000 nM	–
O=C1c2cc(Cl)ccc2OCN1[C@H]1CCC[C@@H](n2c(-c3ccccc3F)nc3cnc(-n4nccn4)cc32)[C@@H]1O [Example 214, 6-chloro-3-((1S,2S,3R)-3-(2-(2-fluorophenyl)-6-(2H-1,2,3-triazol-2-yl)-1H-imidazo[4,5-c]pyridin-1-yl)-2-hydroxycyclohexyl)-2,3-dihydro-4H-benzo[e][1,3]oxazin-4-one]	< 100 nM	–	< 100 nM
O=C(N[C@H]1CCC[C@@H](n2c(-c3c(O)cccc3F)nc3cnc(-c4nc[nH]n4)cc32)C1)c1cc(Cl)ccn1 [Example 70, 4-chloro-N-((1S,3R)-3-(2-(2-fluoro-6-hydroxyphenyl)-6-(1H-1,2,4-triazol-3-yl)-1H-imidazo[4,5-c]pyridin-1-yl)cyclohexyl)picolinamide]	< 100 nM	–	< 100 nM
CC(C)Cc1nc2ccc(-c3ncccn3)cc2n1[C@@H]1CCC[C@H](NC(=O)c2cc(Cl)ccn2)[C@H]1O [Example 219, 4-chloro-N-((1S,2R,3R)-2-hydroxy-3-(2-isobutyl-6-(pyrim-idin-2-yl)-1H-benzo[d]imidazol-1-yl)cyclohexyl)picolinamide]	< 100 nM	–	100 to 500 nM
N#Cc1ccc(F)cc1C(=O)N[C@H]1CCC[C@@H](n2c(-c3ccccc3F)nc3cnc(-c4nc[nH]n4)cc32)C1 [Example 98, 2-cyano-5-fluoro-N-((1S,3R)-3-(2-(2-fluorophenyl)-6-(4H-1,2,4-triazol-3-yl)-1H-imidazo[4,5-c]pyridin-1-yl)cyclohexyl)benzamide]	< 100 nM	–	< 100 nM
CN(C)CCOc1ccc(Cl)cc1C(=O)N[C@H]1CCC[C@@H](n2c(-c3ccccc3F)nc3cnc(-c4nc[nH]n4)cc32)C1 [Example 55, 5-chloro-2-(2-(dimethylamino)ethoxy)-N-((1S,3R)-3-(2-(2-fluorophenyl)-6-(1H-1,2,4-triazol-3-yl)-1H-imidazo[4,5-c]pyridin-1-yl)cyclohexyl)benzamide]	< 100 nM	> 1000 nM	–
O=C(N[C@H]1CCC[C@@H](n2c(-c3ccccc3F)nc3cnc(-c4nc[nH]n4)cc32)C1)c1cc(Cl)ccc1O [Example 53, 5-chloro-N-((1S,3R)-3-(2-(2-fluorophenyl)-6-(1H-1,2,4-triazol-3-yl)-1H-imidazo[4,5-c]pyridin-1-yl)cyclohexyl)-2-hydroxybenzamide]	< 100 nM	–	< 100 nM
CO[C@H]1C[C@H](NC(=O)c2cc(F)ccn2)C[C@H](n2c(-c3ccccc3F)nc3ccc(-c4nc[nH]n4)cc32)C1 [Example 221, 4-fluoro-N-((1S,3R,5R)-3-(2-(2-fluorophenyl)-6-(1H-1,2,4-triazol-3-yl)-1H-benzo[d]imid-azol-1-yl)-5-methoxycyclohex-yl)picolinamide]	< 100 nM	> 1000 nM	–
CC(=O)N1CC(N2Cc3ccc(F)cc3C2=O)CC(n2c(-c3c(F)cccc3F)nc3cnc(-c4nc[nH]n4)cc32)C1 (centres unmarked) [Example 201, 2-(1-acetyl-5-(2-(2,6-difluorophenyl)-6-(1H-1,2,4-triazol-3-yl)-1H-imidazo[4,5-c]pyridin-1-yl)piperidin-3-yl)-6-fluoroisoindolin-1-one]	< 100 nM	–	< 100 nM
O=C(N[C@H]1CCC[C@@H](n2c(-c3ccccc3F)nc3cnc(-c4nc[nH]n4)cc32)C1)c1ccc(Cl)cn1 [Example 13, 5-chloro-N-((1S,3R)-3-(2-(2-fluorophenyl)-6-(1H-1,2,4-triazol-3-yl)-1H-imidazo[4,5-c]pyridin-1-yl)cyclohexyl)picolinamide]	< 100 nM	–	< 100 nM
COc1cccc(F)c1C(=O)N[C@H]1CCC[C@@H](n2c(-c3ccccc3F)nc3cnc(-c4nc[nH]n4)cc32)C1 [Example 2, 2-fluoro-N-((1S,3R)-3-(2-(2-fluorophenyl)-6-(1H-1,2,4-triazol-3-yl)-1H-imidazo[4,5-c]pyridin-1-yl)cyclohexyl)-6-methoxybenzamide]	< 100 nM	> 1000 nM	–
CN1C[C@H](NC(=O)c2cc(Cl)ccc2OCCO)C[C@H](n2c(-c3ccccc3F)nc3cnc(-c4nc[nH]n4)cc32)C1 [Example 150, 5-chloro-N-((3R,5S)-5-(2-(2-fluorophenyl)-6-(1H-1,2,4-triazol-3-yl)-1H-imidazo[4,5-c]pyridin-1-yl)-1-methylpiperidin-3-yl)-2-(2-hydroxyethoxy)benzamide]	< 100 nM	–	100 to 500 nM
O=C1c2cccc(F)c2CN1[C@H]1CCC[C@@H](n2c(-c3ccccc3F)nc3cnc(-c4nc[nH]n4)cc32)C1 [Example 177, 4-fluoro-2-((1S,3R)-3-(2-(2-fluorophenyl)-6-(1H-1,2,4-triazol-3-yl)-1H-imidazo[4,5-c]pyridin-1-yl)cyclohexyl)isoindolin-1-one]	< 100 nM	–	100 to 500 nM
CC(Oc1ccc(Cl)cc1C(=O)N[C@H]1CCC[C@@H](n2c(-c3ccccc3F)nc3cnc(-c4nc[nH]n4)cc32)C1)C(F)(F)F (stereo partly drawn) [Example 88, 5-chloro-N-((1S,3R)-3-(2-(2-fluorophenyl)-6-(1H-1,2,4-triazol-3-yl)-1H-imidazo[4,5-c]pyridin-1-yl)cyclohexyl)-2-((1,1,1-trifluoropropan-2-yl)oxy)benzamide]	< 100 nM	–	100 to 500 nM
CC(C)Oc1ccc(Cl)cc1C(=O)N[C@H]1CCC[C@@H](n2c(-c3ccccc3F)nc3cnc(-c4nc[nH]n4)cc32)C1 [Example 18, 5-chloro-N-((1S,3R)-3-(2-(2-fluorophenyl)-6-(1H-1,2,4-triazol-3-yl)-1H-imidazo[4,5-c]pyridin-1-yl)cyclohexyl)-2-isopropoxybenzamide]	< 100 nM	–	< 100 nM
O=C1c2cc(Cl)ccc2OCN1[C@H]1CCC[C@@H](n2c(-c3ccccc3OC(F)F)nc3cnc(-c4nc[nH]n4)cc32)C1 [compound 205]	< 100 nM	–	< 100 nM
O=C1c2cc(F)ccc2CCN1[C@H]1CCC[C@@H](n2c(-c3ccccc3F)nc3cnc(-c4nc[nH]n4)cc32)C1 [Example 212, 7-fluoro-2-((1S,3R)-3-(2-(2-fluorophenyl)-6-(1H-1,2,4-triazol-3-yl)-1H-imidazo[4,5-c]pyridin-1-yl)cyclohexyl)-3,4-dihydroisoquinolin-1(2H)-one]	< 100 nM	–	< 100 nM
CC(=O)N1C[C@H](NC(=O)c2cc(F)ccn2)C[C@H](n2c(-c3ccccc3F)nc3cnc(-c4nc(C)co4)cc32)C1 [Example 167, N-((3R,5S)-1-acetyl-5-(2-(2-fluorophenyl)-6-(4-methyloxazol-2-yl)-1H-imidazo[4,5-c]pyridin-1-yl)piperidin-3-yl)-4-fluoropicolinamide]	< 100 nM	–	< 100 nM
O=C1c2cc(F)ccc2OCN1[C@H]1CCC[C@@H](n2c(-c3ccccc3OC(F)F)nc3cnc(-c4nc[nH]n4)cc32)C1 [compound 211]	< 100 nM	–	< 100 nM
